From patent US10392368B2, “Pyrazolo and triazolo bicyclic compounds as JAK kinase inhibitors” (THERAVANCE BIOPHARMA R&D IP, LLC, priority 2017, dated 2019)
Read-outs that look alike come from different tables or passages of the source.

How the values were obtained:
JAK2 = molecular target: T1, JAK2 (Homo sapiens, UniProt O60674); experiment: Biochemical JAK2 kinase assay (LanthaScreen); conditions: for Ki: read-out: JAK 2 (pKi) (converted)
T1 construct: GST; purchased Life Technologies
Procedure, shortened: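 pKi values derive from pIC50 via Cheng-Prusoff, with IC50 from a 4-parameter fit of percent-inhibition TR-FRET data using Tb-anti-pSTAT1 (pTyr701) detection. Compound, GST-JAK2 and GFP-STAT1 substrate were pre-incubated 1 h, then ATP started a 1 h ambient reaction (HEPES pH 7.5, 10 mM MgCl2, 1% DMSO).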

JAK3 = molecular target: T2, JAK3 (Homo sapiens, UniProt P52333); experiment: Biochemical JAK3 kinase assay (LanthaScreen); set-up: GST; purchased Life Technologies; conditions: for Ki: read-out: JAK 3 (pKi) (converted)
T2 sequence (P52333 1-1124): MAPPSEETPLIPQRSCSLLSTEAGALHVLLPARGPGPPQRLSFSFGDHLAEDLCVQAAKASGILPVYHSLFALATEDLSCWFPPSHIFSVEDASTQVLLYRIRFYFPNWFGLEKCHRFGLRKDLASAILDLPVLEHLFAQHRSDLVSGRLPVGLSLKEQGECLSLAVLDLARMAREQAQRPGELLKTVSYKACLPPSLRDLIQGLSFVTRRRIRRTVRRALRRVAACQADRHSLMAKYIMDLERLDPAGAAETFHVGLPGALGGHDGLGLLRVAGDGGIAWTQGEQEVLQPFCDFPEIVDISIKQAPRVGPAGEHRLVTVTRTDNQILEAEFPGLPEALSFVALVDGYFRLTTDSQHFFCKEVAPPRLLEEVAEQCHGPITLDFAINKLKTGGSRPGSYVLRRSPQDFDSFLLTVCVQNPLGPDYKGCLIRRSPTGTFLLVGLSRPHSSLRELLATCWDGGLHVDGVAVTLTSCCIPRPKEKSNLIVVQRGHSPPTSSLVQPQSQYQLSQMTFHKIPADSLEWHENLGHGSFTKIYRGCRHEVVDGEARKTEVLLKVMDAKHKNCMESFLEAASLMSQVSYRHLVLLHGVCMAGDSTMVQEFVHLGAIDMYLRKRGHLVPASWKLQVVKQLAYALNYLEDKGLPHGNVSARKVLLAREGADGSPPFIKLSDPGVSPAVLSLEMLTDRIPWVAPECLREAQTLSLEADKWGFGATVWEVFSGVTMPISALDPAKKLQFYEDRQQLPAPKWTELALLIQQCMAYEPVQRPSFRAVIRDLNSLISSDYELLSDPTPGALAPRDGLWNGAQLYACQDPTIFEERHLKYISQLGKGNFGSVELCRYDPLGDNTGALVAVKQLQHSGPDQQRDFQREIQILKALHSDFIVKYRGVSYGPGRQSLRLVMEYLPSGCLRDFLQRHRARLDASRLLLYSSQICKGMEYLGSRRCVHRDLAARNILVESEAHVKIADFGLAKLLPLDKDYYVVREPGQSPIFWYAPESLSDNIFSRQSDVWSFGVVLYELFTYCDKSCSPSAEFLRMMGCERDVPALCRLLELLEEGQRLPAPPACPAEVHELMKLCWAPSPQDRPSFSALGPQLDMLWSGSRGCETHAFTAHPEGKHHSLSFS
Procedure, shortened: (§1)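 Recombinant GST-tagged JAK enzymes with GFP-STAT1 peptide substrate in 50 mM HEPES pH 7.5, 10 mM MgCl2, 1 mM EGTA, 0.01% Brij-35; compounds pre-incubated 1 h, then ATP added, 1 h reaction at ambient temperature. TR-FRET (Tb-anti-pSTAT1 pTyr701, 520/495 nm) after EDTA stop; IC50 by 4-parameter fit, converted to pKi via Cheng-Prusoff.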

[1] = test system: IL-2 stimulated pSTAT5 in Tall-1 T cells; experiment: Cellular JAK3 potency assay: inhibition of IL-2 stimulated pSTAT5 in Tall-1 T cells; format: cell-based, human; conditions: for IC50: Homo sapiens, read-out: Tall-1 (pIC50) (converted)
Procedure, shortened: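 Inhibition of IL-2-induced pSTAT5 was quantified by AlphaLisa in Tall-1 cell lysates. Compound exposure lasted 1 h before 30 min stimulation with 300 ng/ml IL-2 final.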

Tyk2 = molecular target: T3, Tyk2 (Homo sapiens, UniProt P29597); experiment: Biochemical Tyk2 kinase assay (LanthaScreen); conditions: for Ki: read-out: Tyk 2 (pKi) (converted)
T3 construct: GST; purchased Life Technologies
T3 sequence (P29597 whole entry): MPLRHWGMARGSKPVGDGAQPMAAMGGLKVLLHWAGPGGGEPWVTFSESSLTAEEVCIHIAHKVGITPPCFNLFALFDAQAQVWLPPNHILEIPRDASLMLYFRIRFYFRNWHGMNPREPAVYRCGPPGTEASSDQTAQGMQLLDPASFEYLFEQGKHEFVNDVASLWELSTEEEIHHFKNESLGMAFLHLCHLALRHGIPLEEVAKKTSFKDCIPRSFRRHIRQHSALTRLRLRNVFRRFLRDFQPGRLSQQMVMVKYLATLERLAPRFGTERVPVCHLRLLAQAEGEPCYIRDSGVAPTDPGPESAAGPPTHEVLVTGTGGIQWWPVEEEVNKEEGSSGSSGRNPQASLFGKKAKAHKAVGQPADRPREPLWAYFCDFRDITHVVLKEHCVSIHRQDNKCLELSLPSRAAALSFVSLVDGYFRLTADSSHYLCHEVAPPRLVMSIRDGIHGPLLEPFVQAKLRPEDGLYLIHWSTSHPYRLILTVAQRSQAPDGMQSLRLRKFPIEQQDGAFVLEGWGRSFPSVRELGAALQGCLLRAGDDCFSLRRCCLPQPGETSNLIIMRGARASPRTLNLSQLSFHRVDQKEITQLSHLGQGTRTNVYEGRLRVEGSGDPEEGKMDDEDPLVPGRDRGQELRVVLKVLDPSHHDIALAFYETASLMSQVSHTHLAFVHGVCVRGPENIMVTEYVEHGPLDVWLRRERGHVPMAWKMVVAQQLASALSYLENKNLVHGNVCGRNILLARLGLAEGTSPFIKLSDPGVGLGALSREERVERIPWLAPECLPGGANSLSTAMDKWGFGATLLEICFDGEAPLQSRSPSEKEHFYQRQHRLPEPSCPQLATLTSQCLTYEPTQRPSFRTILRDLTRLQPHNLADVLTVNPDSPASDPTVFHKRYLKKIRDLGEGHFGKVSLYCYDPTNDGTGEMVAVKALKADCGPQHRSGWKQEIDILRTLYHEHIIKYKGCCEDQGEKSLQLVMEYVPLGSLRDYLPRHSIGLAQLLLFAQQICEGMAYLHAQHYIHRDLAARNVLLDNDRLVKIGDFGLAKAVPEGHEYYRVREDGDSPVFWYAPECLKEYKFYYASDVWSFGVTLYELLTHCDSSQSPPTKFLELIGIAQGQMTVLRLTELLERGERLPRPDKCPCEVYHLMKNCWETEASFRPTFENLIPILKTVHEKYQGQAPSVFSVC
Procedure, shortened: as §1

JAK1 = molecular target: T4, JAK1 (Homo sapiens, UniProt P23458); experiment: Biochemical JAK1 kinase assay (LanthaScreen); conditions: for Ki: read-out: JAK 1 (pKi) (converted)
T4 construct: GST; purchased Life Technologies
T4 sequence (P23458 whole entry): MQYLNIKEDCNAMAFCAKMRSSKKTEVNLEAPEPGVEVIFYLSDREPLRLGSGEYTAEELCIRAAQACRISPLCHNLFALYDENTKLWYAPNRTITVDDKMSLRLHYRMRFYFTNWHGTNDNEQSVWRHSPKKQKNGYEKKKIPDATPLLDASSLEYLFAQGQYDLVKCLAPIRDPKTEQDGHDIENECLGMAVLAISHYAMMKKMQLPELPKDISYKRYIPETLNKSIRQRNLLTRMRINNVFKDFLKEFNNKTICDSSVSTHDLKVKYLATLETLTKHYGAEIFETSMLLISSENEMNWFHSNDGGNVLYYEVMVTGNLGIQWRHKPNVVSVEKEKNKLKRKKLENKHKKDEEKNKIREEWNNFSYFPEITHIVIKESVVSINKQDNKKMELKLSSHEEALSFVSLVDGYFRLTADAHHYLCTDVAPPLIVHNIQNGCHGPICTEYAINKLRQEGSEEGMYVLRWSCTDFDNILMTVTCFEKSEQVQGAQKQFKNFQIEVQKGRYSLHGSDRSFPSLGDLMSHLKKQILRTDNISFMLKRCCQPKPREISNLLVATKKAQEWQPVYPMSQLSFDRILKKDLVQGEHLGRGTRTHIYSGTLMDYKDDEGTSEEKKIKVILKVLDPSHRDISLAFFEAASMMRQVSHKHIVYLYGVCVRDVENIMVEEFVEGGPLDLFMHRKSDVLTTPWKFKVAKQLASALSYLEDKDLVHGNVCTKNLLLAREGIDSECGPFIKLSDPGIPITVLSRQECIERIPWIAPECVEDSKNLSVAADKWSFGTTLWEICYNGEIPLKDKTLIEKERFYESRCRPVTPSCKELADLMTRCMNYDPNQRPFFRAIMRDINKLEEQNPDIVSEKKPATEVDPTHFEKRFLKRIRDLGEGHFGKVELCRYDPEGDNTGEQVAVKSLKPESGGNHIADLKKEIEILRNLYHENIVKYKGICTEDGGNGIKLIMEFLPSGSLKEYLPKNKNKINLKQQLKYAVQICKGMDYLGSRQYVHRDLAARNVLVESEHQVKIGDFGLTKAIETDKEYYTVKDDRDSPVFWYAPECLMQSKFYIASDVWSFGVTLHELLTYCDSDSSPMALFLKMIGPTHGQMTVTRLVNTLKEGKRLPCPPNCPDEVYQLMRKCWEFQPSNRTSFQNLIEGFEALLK
Procedure, shortened: as §1

[2] = selectivity JAK3 over JAK1, difference of pKi
[3] = TALL-1, IL-2 stimulated pSTAT5, Tall-1 T cells
[4] = selectivity: difference of pKi JAK3 and pKi JAK1
[5] = TALL-1, IL-2 stimulated pSTAT5 in Tall-1 T cells
[6] = IL-2 stimulated pSTAT5 in Tall-1 T cells
[7] = IL-2 stimulated pSTAT5, Tall-1 T cells

T1 sequence (O60674 whole entry): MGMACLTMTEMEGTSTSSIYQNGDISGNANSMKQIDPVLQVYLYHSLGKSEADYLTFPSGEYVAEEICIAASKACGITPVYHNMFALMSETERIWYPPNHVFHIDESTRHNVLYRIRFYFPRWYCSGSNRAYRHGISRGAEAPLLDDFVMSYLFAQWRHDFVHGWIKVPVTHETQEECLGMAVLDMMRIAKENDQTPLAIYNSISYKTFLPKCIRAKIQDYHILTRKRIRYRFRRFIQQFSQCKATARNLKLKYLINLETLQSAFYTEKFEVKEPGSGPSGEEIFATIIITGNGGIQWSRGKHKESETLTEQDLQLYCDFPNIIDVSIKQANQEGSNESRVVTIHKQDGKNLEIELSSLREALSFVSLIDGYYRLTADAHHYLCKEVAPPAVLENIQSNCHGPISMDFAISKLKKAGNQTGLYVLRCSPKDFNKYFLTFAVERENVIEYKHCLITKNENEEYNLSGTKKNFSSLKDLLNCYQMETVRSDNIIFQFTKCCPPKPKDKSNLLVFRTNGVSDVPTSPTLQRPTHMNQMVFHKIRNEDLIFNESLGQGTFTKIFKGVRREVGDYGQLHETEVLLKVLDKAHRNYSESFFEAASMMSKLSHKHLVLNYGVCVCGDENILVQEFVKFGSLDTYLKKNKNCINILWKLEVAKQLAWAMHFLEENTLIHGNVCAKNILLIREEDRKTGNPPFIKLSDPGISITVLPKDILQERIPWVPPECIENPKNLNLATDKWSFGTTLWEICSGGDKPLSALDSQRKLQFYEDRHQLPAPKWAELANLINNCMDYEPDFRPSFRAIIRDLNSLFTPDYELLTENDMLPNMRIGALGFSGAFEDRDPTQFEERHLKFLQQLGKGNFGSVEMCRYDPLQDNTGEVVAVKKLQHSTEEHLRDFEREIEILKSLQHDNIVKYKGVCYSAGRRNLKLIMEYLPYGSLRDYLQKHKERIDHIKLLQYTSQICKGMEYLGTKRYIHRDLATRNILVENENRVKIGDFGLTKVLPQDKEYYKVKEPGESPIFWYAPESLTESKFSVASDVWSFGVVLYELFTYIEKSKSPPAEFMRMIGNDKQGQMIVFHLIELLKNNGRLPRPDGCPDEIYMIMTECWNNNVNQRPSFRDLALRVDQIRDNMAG

C=CC(=O)N1CCC(Oc2nc(-c3ccc(O)cc3)cc3[nH]ncc23)CC1 [Compound 6-15]
Ki (JAK2): 10 to 100 nM | Ki (JAK3): 0.1 to 1 nM | JAK3 (pKi)-JAK1 (pKi) (JAK3; [2]): A (a value of 3 or above) | IC50 [1, 3]: 31.6 to 200 nM | Ki (Tyk2): > 100 nM | Ki (JAK1): > 100 nM

C=CC(=O)N1CC[C@H](Oc2cc(-c3ccc(O)cc3)nc3[nH]nc(C)c23)C1 [Compound 1-31]
Ki (JAK2): > 100 nM | Ki (JAK3): < 0.1 nM | JAK3 (pKi)-JAK1 (pKi) (JAK3; [4]): A (a value of 3 or above) | IC50 [1, 5]: 31.6 to 200 nM | Ki (Tyk2): > 100 nM | Ki (JAK1): > 100 nM

C=CC(=O)N1CC(COc2cc(-c3ccc(O)cc3)cc3[nH]ncc23)(OC)C1 [Compound 3-33]
JAK 2 (pKi) (JAK2): E (a pKi value of 7 or below (Ki of 100 nM or above)) | JAK 3 (pKi) (JAK3): B (a pKi value between 9 and 10 (Ki between 1 nM and 0.1 nM)) | JAK3 (pKi)-JAK1 (pKi) (JAK3; [4]): B (a value of 2.3 to 3) | Tall-1 (pIC50) [1, 6]: B (a pIC50 value between 6.7 (included) and 7.5 (IC50 between 200 nM and 32 nM)) | Tyk 2 (pKi) (Tyk2): E (a pKi value of 7 or below (Ki of 100 nM or above)) | JAK 1 (pKi) (JAK1): E (a pKi value of 7 or below (Ki of 100 nM or above))

C=CC(=O)N1CC(Oc2cc(-c3ccc(O)cc3)cc3[nH]ncc23)C1 [Compound 5-2]
JAK 2 (pKi) (JAK2): E (a pKi value of 7 or below (Ki of 100 nM or above)) | JAK 3 (pKi) (JAK3): B (a pKi value between 9 and 10 (Ki between 1 nM and 0.1 nM)) | JAK3 (pKi)-JAK1 (pKi) (JAK3; [4]): A (a value of 3 or above) | Tall-1 (pIC50) [1, 6]: B (a pIC50 value between 6.7 (included) and 7.5 (IC50 between 200 nM and 32 nM)) | Tyk 2 (pKi) (Tyk2): E (a pKi value of 7 or below (Ki of 100 nM or above)) | JAK 1 (pKi) (JAK1): E (a pKi value of 7 or below (Ki of 100 nM or above))

C=CC(=O)N1CCC(N(C)c2cc(-c3ccc(O)c(F)c3)cc3[nH]ncc23)CC1 [Compound 7-9]
Ki (JAK2): 10 to 100 nM | Ki (JAK3): < 0.1 nM | JAK3 (pKi)-JAK1 (pKi) (JAK3; [2]): A (a value of 3 or above) | IC50 [1, 3]: < 31.6 nM | Ki (Tyk2): > 100 nM | Ki (JAK1): > 100 nM

C=CC(=O)N1CC(CC)(COc2cc(-c3ccc(O)c(F)c3)nc3[nH]ncc23)C1 [Compound 3-70]
JAK 2 (pKi) (JAK2): E (a pKi value of 7 or below (Ki of 100 nM or above)) | JAK 3 (pKi) (JAK3): A (a pKi value≥10 (Ki≤0.1 nM)) | JAK3 (pKi)-JAK1 (pKi) (JAK3; [4]): A (a value of 3 or above) | Tall-1 (pIC50) [1, 6]: B (a pIC50 value between 6.7 (included) and 7.5 (IC50 between 200 nM and 32 nM)) | Tyk 2 (pKi) (Tyk2): E (a pKi value of 7 or below (Ki of 100 nM or above)) | JAK 1 (pKi) (JAK1): E (a pKi value of 7 or below (Ki of 100 nM or above))

C=C(CN(C)C)C(=O)N1CC(COc2cc(-c3ccc(O)cc3)nc3[nH]ncc23)C1 [Compound 3-79]
Ki (JAK2): > 100 nM | Ki (JAK3): 0.1 to 1 nM | JAK3 (pKi)-JAK1 (pKi) (JAK3; [4]): A (a value of 3 or above) | IC50 [1, 5]: 31.6 to 200 nM | Ki (Tyk2): > 100 nM | Ki (JAK1): > 100 nM

CN(C)C/C=C/C(=O)N1CC(F)(COc2cc(-c3ccc(O)cc3)nc3[nH]ncc23)C1 [Compound 3-89]
Ki (JAK2): > 100 nM | Ki (JAK3): < 0.1 nM | JAK3 (pKi)-JAK1 (pKi) (JAK3; [4]): A (a value of 3 or above) | IC50 [1, 5]: 31.6 to 200 nM | Ki (Tyk2): > 100 nM | Ki (JAK1): > 100 nM

C=CC(=O)N1C2CCC1CC(Oc1cc(-c3ccc(O)c(Cl)c3)cc3[nH]ncc13)C2 (stereo not drawn) [Compound 9-2]
JAK 2 (pKi) (JAK2): E (a pKi value of 7 or below (Ki of 100 nM or above)) | JAK 3 (pKi) (JAK3): B (a pKi value between 9 and 10 (Ki between 1 nM and 0.1 nM)) | JAK3 (pKi)-JAK1 (pKi) (JAK3; [2]): A (a value of 3 or above) | Tall-1 (pIC50) [1, 7]: A (a pIC50 value≥7.5 (IC50≤32 nM)) | Tyk 2 (pKi) (Tyk2): E (a pKi value of 7 or below (Ki of 100 nM or above)) | JAK 1 (pKi) (JAK1): E (a pKi value of 7 or below (Ki of 100 nM or above))

C=CC(=O)N1CC[C@H](Oc2nc(-c3ccc(O)c(F)c3)cc3[nH]nc(C)c23)C1 [Compound 1-36]
Ki (JAK2): 10 to 100 nM | Ki (JAK3): 0.1 to 1 nM | JAK3 (pKi)-JAK1 (pKi) (JAK3; [4]): B (a value of 2.3 to 3) | IC50 [1, 5]: < 31.6 nM | Ki (Tyk2): > 100 nM | Ki (JAK1): 10 to 100 nM

C=CC(=O)N1CC[C@H](COc2cc(-c3ccc(O)c(F)c3)cc3[nH]ncc23)C1 [Compound 2-5]
JAK 2 (pKi) (JAK2): D (a pKi value between 7 and 8 (Ki between 100 nM and 10 nM)) | JAK 3 (pKi) (JAK3): B (a pKi value between 9 and 10 (Ki between 1 nM and 0.1 nM)) | JAK3 (pKi)-JAK1 (pKi) (JAK3; [4]): A (a value of 3 or above) | Tall-1 (pIC50) [1, 6]: B (a pIC50 value between 6.7 (included) and 7.5 (IC50 between 200 nM and 32 nM)) | Tyk 2 (pKi) (Tyk2): E (a pKi value of 7 or below (Ki of 100 nM or above)) | JAK 1 (pKi) (JAK1): E (a pKi value of 7 or below (Ki of 100 nM or above))

C=CC(=O)N1CC2(CCC2Oc2nc(-c3ccc(O)cc3)nc3[nH]ncc23)C1 (stereo not drawn) [Compound 13-16]
JAK 2 (pKi) (JAK2): E (a pKi value of 7 or below (Ki of 100 nM or above)) | JAK 3 (pKi) (JAK3): B (a pKi value between 9 and 10 (Ki between 1 nM and 0.1 nM)) | JAK3 (pKi)-JAK1 (pKi) (JAK3; [2]): A (a value of 3 or above) | Tall-1 (pIC50) [1, 7]: B (a pIC50 value between 6.7 (included) and 7.5 (IC50 between 200 nM and 32 nM)) | Tyk 2 (pKi) (Tyk2): E (a pKi value of 7 or below (Ki of 100 nM or above)) | JAK 1 (pKi) (JAK1): E (a pKi value of 7 or below (Ki of 100 nM or above))

COC1CN(C/C=C/C(=O)N2CC(COc3cc(-c4ccc(O)cc4)cc4[nH]ncc34)C2)C1 [Compound 3-132]
Ki (JAK2): > 100 nM | Ki (JAK3): 0.1 to 1 nM | JAK3 (pKi)-JAK1 (pKi) (JAK3; [4]): A (a value of 3 or above) | IC50 [1, 5]: 200 to 1000 nM | Ki (Tyk2): > 100 nM | Ki (JAK1): > 100 nM

C=CC(=O)N1C2CCC1CC(Nc1cc(-c3ccc(O)cc3)cc3[nH]ncc13)C2 (stereo not drawn) [Compound 10-7]
JAK 2 (pKi) (JAK2): D (a pKi value between 7 and 8 (Ki between 100 nM and 10 nM)) | JAK 3 (pKi) (JAK3): B (a pKi value between 9 and 10 (Ki between 1 nM and 0.1 nM)) | JAK3 (pKi)-JAK1 (pKi) (JAK3; [2]): A (a value of 3 or above) | Tall-1 (pIC50) [1, 7]: B (a pIC50 value between 6.7 (included) and 7.5 (IC50 between 200 nM and 32 nM)) | Tyk 2 (pKi) (Tyk2): E (a pKi value of 7 or below (Ki of 100 nM or above)) | JAK 1 (pKi) (JAK1): E (a pKi value of 7 or below (Ki of 100 nM or above))
